Test results taken from patent US6407288B1, “Naphthylsalicylanilides as antimicrobial and antiinflammatory agents” (The Research Foundation of State University of New York, priority 2000, dated 2002).
Values after ≈ are worked out from the molar mass of the structure shown.

Experiments:
[1] = test system: Lact 7496; assay: MIC microdilution, gram positive; assay type: cell-based, Lactobacillus rhamnosus (casei); details: Lacticaseibacillus rhamnosus, 7496; Table 2, Gram Positive
Summary of the method: (§1)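 Modified NCCLS broth microdilution: aerobes in full-strength BHI, anaerobes in half-strength BHI with yeast extract, hemin and menadione, each well given 10 µL of a ~1×10^8 CFU/mL inoculum. Drugs ranged 50–0.05 µg/assay, run in duplicate, incubated 24–48 h, anaerobically under 5% CO2/10% H2/N2 where needed. MIC was the lowest concentration with no visible growth.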

[2] = test system: A. viscosus; assay: MIC microdilution, gram positive; assay type: cell-based, Actinomyces viscosus; details: Actinomyces viscosus; Table 2, Gram Positive
Summary of the method: as §1

[3] = test system: Str. pn. R; assay: Mean Streptococcus MIC; assay type: cell-based; details: Streptococcus; Table 5, mean; strain resistant to penicillin and erythromycin
Summary of the method: (§2)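 Modified NCCLS broth microdilution in duplicate: 10 μL inoculum from cultures diluted to about 1×10^8 CFU/mL, drug 50 to 0.05 μg/assay diluted from DMSO stock. Full-strength BHI for aerobes, supplemented half-strength BHI under 5% CO2/10% H2/N2 for anaerobes, 24–48 h; MIC as lowest concentration without visible growth.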

[4] = test system: Str. pn; assay: Mean Streptococcus MIC; assay type: cell-based; details: Streptococcus; Table 5, mean
Summary of the method: as §2

[5] = test system: S.salivarius; assay: MIC microdilution, gram positive; assay type: cell-based, Streptococcus salivarius; details: Streptococcus salivarius; Table 1, Gram Positive
Summary of the method: as §1

[6] = test system: S. mutans; assay: MIC microdilution, gram positive; assay type: cell-based, Streptococcus mutans; details: Streptococcus mutans; Table 1, Gram Positive
Summary of the method: as §1

[7] = test system: S. aureus; assay: MIC microdilution, gram positive; assay type: cell-based, Staphlococcus aureus; details: for MIC: Staphylococcus aureus
Summary of the method: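 Broth microdilution (modified NCCLS M7-A4): BHI for aerobes, supplemented half-strength BHI under 5% CO2/10% H2/N2 for anaerobes; 10 μL of ~1×10^8 CFU/mL inoculum; drugs 50 to 0.05 μg/assay from DMSO stock. Duplicates incubated 24–48 h; MIC = lowest concentration without visible growth. Staphylococcus R: coagulase-negative clinical isolate 00-045-1209.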

[8] = test system: P. ging 381; assay: MIC microdilution, gram negative; assay type: cell-based, Porphyromonas gingivalis; details: for MIC: Porphyromonas gingivalis, 381, Table 3, Gram Negative; for MIC P. ging 381: Table 3 printed a second time, Gram Negative
Summary of the method: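 Modified NCCLS broth microdilution; anaerobes grown 48-72 hrs in half-strength BHI with yeast extract, hemin and menadione, aerobes in full-strength BHI, inoculum ~1×10^8 CFU/mL (10 μL/assay). Drugs from DMSO stock, final 50 to 0.05 μg/assay, duplicate, 24 to 48 hrs (anaerobic: 5% CO2, 10% H2, N2); MIC = lowest concentration without visible growth.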

[9] = test system: M. luteus; assay: MIC microdilution, gram positive; assay type: cell-based, Micrococcus luteus; details: Micrococcus luteus; Table 2, Gram Positive
Summary of the method: as §1

Row | Compound | MIC [1] [µg/mL] | MIC [2] [µg/mL] | MIC [3] [µg/mL] | MIC [4] [µg/mL] | MIC [5] [µg/mL] | MIC [6] [µg/mL] | MIC ([7]; Table 2, Gram Positive) [µg/mL] | MIC S. aureus ([7]; second Table 5 (Example 5)) | MIC [8] [µg/mL] | MIC P. ging 381 [8] [micrograms/ml] | MIC [9] [µg/mL] | MIC ([7]; second Table 5 (Example 5)) [µg/mL]
1 | CCCCc1ccc(C(=O)c2ccc(O)c(C(=O)Nc3cccc(C(F)(F)F)c3)c2)cc1 [BBAmF, reference compound] | 6.3 (≈ 14.3 µM) | > 50 | > 50 | 0.45 (≈ 1.02 µM) | > 50 | > 50 | > 50 | NE (NE indicates that the drug was not effective at a concentration >50 micrograms/ml) | < 0.4 | <0.4 | 3.1 (≈ 7.02 µM) | 
2 | N#Cc1cccc(NC(=O)c2cc(C(=O)c3cccc4ccccc34)ccc2O)c1 [NA1mC] | 3.1 (≈ 7.9 µM) | 3.2 (≈ 8.15 µM) | 12.5 (≈ 31.9 µM) | 1.1 (≈ 2.8 µM) | 50 (≈ 127 µM) | 3.1 (≈ 7.9 µM) |  |  | 0.4 (≈ 1.02 µM) | 0.4 | 3.1 (≈ 7.9 µM) | 12.5 (≈ 31.9 µM)
3 | O=C(c1ccc(-c2ccccc2)cc1)c1ccc(O)c(C(=O)Nc2cccc(C(F)(F)F)c2)c1 [BPAmF, reference compound] | 6.3 (≈ 13.7 µM) | > 50 | > 50 | 0.84 (≈ 1.82 µM) | > 50 | > 50 | > 50 | NE (NE indicates that the drug was not effective at a concentration >50 micrograms/ml) | < 0.4 | <0.4 | 3.1 (≈ 6.72 µM) | 
4 | N#Cc1cccc(NC(=O)c2cc(C(=O)c3ccc(-c4ccccc4)cc3)ccc2O)c1 [BPAmC, reference compound] | 12.5 (≈ 29.9 µM) | > 50 | > 50 | 0.58 (≈ 1.39 µM) | > 50 | > 50 | > 50 | NE (NE indicates that the drug was not effective at a concentration >50 micrograms/ml) | < 0.4 | <0.4 | 3.1 (≈ 7.41 µM) | 
5 | O=C(Nc1cccc(C(F)(F)F)c1)c1cc(C(=O)c2cccc3ccccc23)ccc1O [NA1mF] | 0.4 (≈ 0.919 µM) | < 0.1 | 0.78 (≈ 1.79 µM) | 0.45 (≈ 1.03 µM) | 3.1 (≈ 7.12 µM) | 0.8 (≈ 1.84 µM) |  |  | < 0.1 | <0.1 | 0.8 (≈ 1.84 µM) | 3.1 (≈ 7.12 µM)
